Measured values taken from publication PMC9687209 (2022).

Experiments:
[1] = test system: C1-c (DNA, aptamer) CCAACATGATGTTCCGTCATTTTGAGCGTG; assay: BLI; settings: 177.7 mM Na+, 0.492 mM Mg2+; 0.2 g/L KCl, 0.2 g/L KH2PO4, 0.1 g/L CaCl2; selection buffer (NaCl/phosphate), pH 7.4, 25 °C
[2] = test system: Random Sequence (DNA, single strand) ATTGGCACTCCACGCATAGGATTCCGGCTAATCGACTGACTGCCGGTACGATGCAGTCAGCCTATGCGTGCTACCGTGAA; assay: BLI; settings: 177.7 mM Na+, 0.492 mM Mg2+; 0.2 g/L KCl, 0.2 g/L KH2PO4, 0.1 g/L CaCl2; selection buffer, pH 7.4, 25 °C; NB [sic]; 6.25 μM tested in Figure 4
[3] = test system: C1-b (DNA, aptamer) GGTGTGTACACC; assay: BLI; settings: 177.7 mM Na+, 0.492 mM Mg2+; 0.2 g/L KCl, 0.2 g/L KH2PO4, 0.1 g/L CaCl2; selection buffer (NaCl/phosphate), pH 7.4, 25 °C
[4] = test system: C58/htC3 (DNA, aptamer) ATTGGCACTCCACGCATAGGCCAAGGTGTCAATCTTGAATAGCTGTGTAACGTCTATGTGCCTATGCGTGCTACCGTGAA; assay: BLI; settings: 177.7 mM Na+, 0.492 mM Mg2+; 0.2 g/L KCl, 0.2 g/L KH2PO4, 0.1 g/L CaCl2; selection buffer (NaCl/phosphate), pH 7.4, 25 °C
[5] = test system: C87 (DNA, aptamer) ATTGGCACTCCACGCATAGGGGAAGCTGCTCTCATCAATAAAAAATGAGACGGAGGTTACCCTATGCGTGCTACCGTGAA; assay: BLI; settings: 177.7 mM Na+, 0.492 mM Mg2+; 0.2 g/L KCl, 0.2 g/L KH2PO4, 0.1 g/L CaCl2; selection buffer (NaCl/phosphate), pH 7.4, 25 °C
[6] = test system: htC5 (DNA, aptamer) ATTGGCACTCCACGCATAGGGGAGGGCCGGTTGAACTGTAATGTGTAAACCACGCGCTACCCTATGCGTGCTACCGTGAA; assay: BLI; settings: 177.7 mM Na+, 0.492 mM Mg2+; 0.2 g/L KCl, 0.2 g/L KH2PO4, 0.1 g/L CaCl2; selection buffer (NaCl/phosphate), pH 7.4, 25 °C; NB [sic]; highest concentration not stated
[7] = test system: C1/htC1 (DNA, aptamer) ATTGGCACTCCACGCATAGGCCAACATGATGTTCCGTCATTTTGAGGTGTGTACACCGTGCCTATGCGTGCTACCGTGAA; assay: BLI; settings: 177.7 mM Na+, 0.492 mM Mg2+; 0.2 g/L KCl, 0.2 g/L KH2PO4, 0.1 g/L CaCl2; selection buffer (NaCl/phosphate), pH 7.4, 25 °C
[8] = test system: C12/htC2 (DNA, aptamer) ATTGGCACTCCACGCATAGGGACATCGAGAAGAATCCTGATACGACTTGGCTTTGCTGGCCCTATGCGTGCTACCGTGAA; assay: BLI; settings: 177.7 mM Na+, 0.492 mM Mg2+; 0.2 g/L KCl, 0.2 g/L KH2PO4, 0.1 g/L CaCl2; selection buffer (NaCl/phosphate), pH 7.4, 25 °C
[9] = test system: C1-d (DNA, aptamer) CCGAGGTGTGTACACCGTG; assay: BLI; settings: 177.7 mM Na+, 0.492 mM Mg2+, 0.2 g/L KCl, 0.2 g/L KH2PO4, 0.1 g/L CaCl2, pH 7.4, 25 °C
[10] = test system: C1-a (DNA, aptamer) CAACATGATGTTCCGTCATTTTG; assay: BLI; settings: 177.7 mM Na+, 0.492 mM Mg2+; 0.2 g/L KCl, 0.2 g/L KH2PO4, 0.1 g/L CaCl2; selection buffer (NaCl/phosphate), pH 7.4, 25 °C
[11] = test system: C1-s (DNA, aptamer) CCAACATGATGTTCCGTCATTTTGAGGTGTGTACACCGTG; assay: BLI; settings: 177.7 mM Na+, 0.492 mM Mg2+; 0.2 g/L KCl, 0.2 g/L KH2PO4, 0.1 g/L CaCl2; selection buffer (NaCl/phosphate), pH 7.4, 25 °C
[12] = test system: C2 (DNA, aptamer) ATTGGCACTCCACGCATAGGGGATAACGGGTTGATGGTACTTCTATCTATCGCGTTGTGCCCTATGCGTGCTACCGTGAA; assay: BLI; settings: 177.7 mM Na+, 0.492 mM Mg2+; 0.2 g/L KCl, 0.2 g/L KH2PO4, 0.1 g/L CaCl2; selection buffer (NaCl/phosphate), pH 7.4, 25 °C
[13] = test system: C53 (DNA, aptamer) ATTGGCACTCCACGCATAGGGTAAAGTACGTATGTCATGCACATGCCGTATTCTCTTTGCCCTATGCGTGCTACCGTGAA; assay: BLI; settings: 177.7 mM Na+, 0.492 mM Mg2+; 0.2 g/L KCl, 0.2 g/L KH2PO4, 0.1 g/L CaCl2; selection buffer (NaCl/phosphate), pH 7.4, 25 °C; NB [sic]; highest concentration not stated
[14] = test system: C116 (DNA, aptamer) ATTGGCACTCCACGCATAGGGATCTCATAACCAGTCTCTTTGACTGATGTTAGTAAGGTCCCTATGCGTGCTACCGTGAA; assay: BLI; settings: 177.7 mM Na+, 0.492 mM Mg2+; 0.2 g/L KCl, 0.2 g/L KH2PO4, 0.1 g/L CaCl2; selection buffer (NaCl/phosphate), pH 7.4, 25 °C
[15] = test system: C100/htC4 (DNA, aptamer) ATTGGCACTCCACGCATAGGGAATGGACCCGGTATAATTCCCTCAAGAGTGCCAATTTCACCTATGCGTGCTACCGTGAA; assay: BLI; settings: 177.7 mM Na+, 0.492 mM Mg2+; 0.2 g/L KCl, 0.2 g/L KH2PO4, 0.1 g/L CaCl2; selection buffer (NaCl/phosphate), pH 7.4, 25 °C
[16] = test system: C66 (DNA, aptamer) ATTGGCACTCCACGCATAGGGGTGGTCTTCTGGGTAATCCCCGACTACCCTTATGCCGGCCCTATGCGTGCTACCGTGAA; assay: BLI; settings: 177.7 mM Na+, 0.492 mM Mg2+; 0.2 g/L KCl, 0.2 g/L KH2PO4, 0.1 g/L CaCl2; selection buffer (NaCl/phosphate), pH 7.4, 25 °C
[17] = test system: C1-d (DNA, aptamer) CCGAGGTGTGTACACCGTG; assay: BLI response, four-parameter logistic fit; settings: 177.7 mM Na+, 0.492 mM Mg2+; 0.2 g/L KCl, 0.2 g/L KH2PO4, 0.1 g/L CaCl2; selection buffer, pH 7.4, 25 °C; calibration curve 0.625-30 μM DA; Hill slope 1.351

KD [1] [µM]	binding [2]	KD [3] [nM]	KD [4] [µM]	KD [5] [µM]	binding [6]	KD [7] [µM]	KD [8] [µM]	KD ([9]; selection buffer (NaCl/phosphate), kon 2.94 × 10^5 1/Ms, kdis 5.13 × 10^-2 1/s) [nM]	KD [10] [µM]	KD [11] [µM]	KD [12] [µM]	binding [13]	KD [14] [µM]	KD [15] [µM]	KD [16] [µM]	EC50 [17] [µM]	binding ([9]; selection buffer, 6.25 μM tested)	Compound
4.9 ± 0.312	no	167 ± 9.33	6.33	5.04	no	1.69	5.21	109 ± 9.31	6.9 ± 0.628	1.5 ± 0.113	20.3	no	11.7	3.25	22.7	12.57	–	C/C(=C/C=C/[C@@H](C)C(=O)O)[C@H]1CN[C@H](C(=O)O)[C@H]1CC(=O)O
–	–	–	–	–	–	–	–	–	–	–	–	–	–	–	–	–	no	C=C1[C@@H](O)[C@@H]2O[C@]3(CC[C@H](/C=C/[C@@H](C)[C@@H]4CC(C)=C[C@@]5(O[C@H](C[C@@](C)(O)C(=O)O)CC[C@H]5O)O4)O3)CC[C@H]2O[C@@H]1[C@@H](O)C[C@H](C)[C@H]1O[C@@]2(CCCCO2)CC[C@H]1C
